The source of these data is patent EP0229313A2, “Compound related to antibiotic TAN-749 and their production” (priority 1985, dated 1987).

Each structure is given as a SMILES string. Converted amounts (≈) assume the structure as drawn. Like-named read-outs stand apart in the source and are kept apart here. Bounds are passed on as bounds.

The test system of series [1] is Pseudomonas aeruginosa IFO 3080. The experiment in a line: Antibacterial spectrum, MIC on agar (Table 3). The format is cell-based. The settings on record: Bacto-Antibiotic Medium 3 + yeast extract + agar, inoculum approx. 10^6 CFU/mℓ, dihydrochlorides. An excerpt:
(§1) Tables 3 and 4 show the antibacterial spectra of TAN-749A, B, C, and D (dihydrochlorides) against various microbes.

The test system of series [2] is Staphylococcus aureus FDA 209P. Nature of the series: Antibacterial spectrum, MIC on agar (Table 3). The series is classed as cell-based. The note with it: Bacto-Antibiotic Medium 3 + yeast extract + agar, inoculum approx. 10^6 CFU/mℓ, dihydrochlorides.
Text: as §1

In series [3] the test system is Citrobacter freundii IFO 12681. Nature of the series: Antibacterial spectrum, MIC on agar (Table 3). The settings on record: Bacto-Antibiotic Medium 3 + yeast extract + agar, inoculum approx. 10^6 CFU/mℓ, dihydrochlorides. The series is classed as cell-based.
Text: as §1

Series [4] deals with Acinetobacter calcoaceticus IFO 13006. Nature of the series: Antibacterial spectrum, MIC on agar (Table 3). The series is classed as cell-based. The note with it: Bacto-Antibiotic Medium 3 + yeast extract + agar, inoculum approx. 10^6 CFU/mℓ, dihydrochlorides, listed as C.
Text: as §1

In series [5] the test system is Escherichia coli 0-111. Nature of the series: Therapeutic effects on infectious diseases in mice (Table 6). The format is in vivo. The note with it: mice infected with Escherichia coli 0-111, route Subcutaneous, dihydrochlorides.
Series [6] relates to Staphylococcus aureus 308A-1. Nature of the series: Antibacterial spectrum, MIC by agar dilution method (Table 4). The settings on record: medium TSA, inoculum 10^8 CFU/mℓ, dihydrochlorides, listed as C. The series is classed as cell-based.
Text: as §1

Series [7] concerns Streptococcus pyogenes E-14. The series is described as above. The format is cell-based. The note with it: medium B-TSA (10% horse serum/TSA), inoculum 10^8 CFU/mℓ, dihydrochlorides, listed as C.
Text: as §1

For series [8], the system named is Escherichia coli T7. Described as above. The series is classed as cell-based. The settings on record: inoculum 10^8 CFU/mℓ, dihydrochlorides.
Text: as §1

In series [9] the test system is Staphylococcus aureus FDA209P. Described as above. The format is cell-based. The note with it: medium B-TSA (10% horse serum/TSA), inoculum 10^8 CFU/mℓ, dihydrochlorides, listed as C.
Text: as §1

For series [10], the system named is Staphylococcus aureus TN 2684. The experiment in a line: MIC against clinically isolated Staphylococcus aureus strains (Table 5). The series is classed as cell-based. The settings on record: TN2684, strain TN 2684, resistance type Macrolide, agar dilution method, Mueller Hinton medium, inoculum 10^6CFU/mℓ, read-out: Minimal Inhibitory Concentration.
Series [11] deals with Staphylococcus aureus 308A-1. Nature of the series: Therapeutic effects on infectious diseases in mice (Table 6). The format is in vivo. The note with it: 308A1, po, mice infected with Staphylococcus aureus 308A-1, dihydrochlorides.
Series [12] relates to Pseudomonas aeruginosa P-9. The description is as above. The series is classed as in vivo. The settings on record: P9, sc; mice infected with Pseudomonas aeruginosa P-9; route Subcutaneous; dihydrochlorides.
Series [13] concerns Escherichia coli NIHJ JC2. The experiment in a line: Antibacterial spectrum, MIC on agar (Table 3). The format is cell-based. The settings on record: NIHJJC2, Bacto-Antibiotic Medium 3 + yeast extract + agar, inoculum approx. 10^6 CFU/mℓ, dihydrochlorides, read-out: Minimal Inhibitory Concentration.
Text: as §1

In series [14] the test system is Klebsiella pneumoniae IFO 3317. The experiment in a line: Antibacterial spectrum, MIC on agar (Table 3). The format is cell-based. The settings on record: IFO3317, Bacto-Antibiotic Medium 3 + yeast extract + agar, inoculum approx. 10^6 CFU/mℓ, dihydrochlorides, read-out: Minimal Inhibitory Concentration.
Text: as §1

Series [15] has as its system Proteus vulgaris IFO 3988. The experiment in a line: Antibacterial spectrum, MIC on agar (Table 3). The format is cell-based. The settings on record: IFO3988, Bacto-Antibiotic Medium 3 + yeast extract + agar, inoculum approx. 10^6 CFU/mℓ, dihydrochlorides, read-out: Minimal Inhibitory Concentration.
Text: as §1

Series [16] concerns Proteus morganii IFO 3168. The experiment in a line: Antibacterial spectrum, MIC on agar (Table 3). The series is classed as cell-based. The settings on record: Morganella morganii, IFO3168, Bacto-Antibiotic Medium 3 + yeast extract + agar, inoculum approx. 10^6 CFU/mℓ, dihydrochlorides, read-out: Minimal Inhibitory Concentration.
Text: as §1

The subject of series [17] is Escherichia coli T7. Nature of the series: Therapeutic effects on infectious diseases in mice (Table 6). The format is in vivo. The settings on record: sc; mice infected with Escherichia coli T7; route Subcutaneous; dihydrochlorides.
Series [18] has as its system Staphylococcus aureus TN 2687. The experiment in a line: MIC against clinically isolated Staphylococcus aureus strains (Table 5). The format is cell-based. The note with it: TN2687, strain TN 2687, resistance type Macrolide, agar dilution method, Mueller Hinton medium, inoculum 10^6CFU/mℓ, read-out: Minimal Inhibitory Concentration.
Series [19] is described as follows: Acute toxicities on mice (Table 7). The note with it: mouse, in vivo, dihydrochlorides.
The test system of series [20] is Staphylococcus aureus TN 2648. The experiment in a line: MIC against clinically isolated Staphylococcus aureus strains (Table 5). The series is classed as cell-based. The note with it: TN2648, strain TN 2648, resistance type Methicillin, agar dilution method, Mueller Hinton medium, inoculum 10^6CFU/mℓ, read-out: Minimal Inhibitory Concentration.
The subject of series [21] is Staphylococcus aureus 1840 S. Described as above. The series is classed as cell-based. The note with it: strain 1840 S, resistance type None, agar dilution method, Mueller Hinton medium, inoculum 10^6CFU/mℓ, read-out: Minimal Inhibitory Concentration.
Series [22] relates to Staphylococcus aureus TN 2613. Described as above. The series is classed as cell-based. The settings on record: TN2613, strain TN 2613, resistance type Methicillin, agar dilution method, Mueller Hinton medium, inoculum 10^6CFU/mℓ, read-out: Minimal Inhibitory Concentration.
Series [23] has as its system Pseudomonas aeruginosa P9. The experiment in a line: Antibacterial spectrum, MIC by agar dilution method (Table 4). The series is classed as cell-based. The settings on record: medium B-TSA (10% horse serum/TSA), inoculum 10^8 CFU/mℓ, dihydrochlorides, read-out: Minimal Inhibitory Concentration.
Text: as §1

In series [24] the test system is Staphylococcus aureus 1840-2. Nature of the series: MIC against clinically isolated Staphylococcus aureus strains (Table 5). The format is cell-based. The settings on record: 18402, strain 1840-2, resistance type Penicillin G, agar dilution method, Mueller Hinton medium, inoculum 10^6CFU/mℓ, read-out: Minimal Inhibitory Concentration.
Series [25] relates to Staphylococcus aureus TN 2688. The description is as above. The settings on record: TN2688, strain TN 2688, resistance type Macrolide, agar dilution method, Mueller Hinton medium, inoculum 10^6CFU/mℓ, read-out: Minimal Inhibitory Concentration. The format is cell-based.

Regarding `CC=CC=CC(=O)NCC(O)CC(N)CC(=O)NCCC(=N)N` (stereo not shown) [TAN-749C], the “Minimal Inhibitory Concentration” value was 50 µg/mL in series [1] (Pseudomonas aeruginosa IFO 3080, listed as C); over 100 µg/mL in [2] (listed as C); over 100 µg/mL in series [3] (Citrobacter freundii IFO 12681, listed as C); over 100 µg/mL in [4]; over 100 µg/mL in series [6]; 100 µg/mL in [7]. Moreover, the “Minimal Inhibitory Concentration” value is over 100 µg/mL in series [8] (Escherichia coli T7, medium TSA, listed as C) and over 100 µg/mL in series [9]. The compound further came in with an ED50 in series [5] (listed as C) of 50 mg/kg.

In the case of `CC=CC=CC(=O)NCC(O)CC(N)CC(=O)NCCC(=N)N` (stereo not shown) [TAN-749A], the MIC in series [10] is 6.25 µg/mL (≈ 19.2 µM); in [13], over 100 µg/mL; in [14], over 100 µg/mL; in series [1] (Pseudomonas aeruginosa, IFO3080, Pseudomonas aeruginosa IFO 3080, read-out: Minimal Inhibitory Concentration), 25 µg/mL; in [2] (Staphylococcus aureus, FDA209P, read-out: Minimal Inhibitory Concentration), 50 µg/mL; in series [15], 100 µg/mL. The MIC was at least 100 µg/mL in series [3] (Citrobacter freundii, IFO12681, Citrobacter freundii IFO 12681, read-out: Minimal Inhibitory Concentration); over 100 µg/mL in series [16]; 6.25 µg/mL (≈ 19.2 µM) in series [18]; 3.13 µg/mL (≈ 9.62 µM) in series [20]; 12.5 µg/mL (≈ 38.4 µM) in [21]; 6.25 µg/mL (≈ 19.2 µM) in [22]. Moreover, the MIC came to 100 µg/mL (≈ 307 µM) in series [23]; 50 µg/mL (≈ 154 µM) in [8] (Escherichia coli, T7, Escherichia coli T7, medium TSA, read-out: Minimal Inhibitory Concentration); 12.5 µg/mL (≈ 38.4 µM) in series [24]; 6.25 µg/mL (≈ 19.2 µM) in [25]. Also, the ED50 in series [11] was 17.7 mg/kg; in [12], 31 mg/kg; in series [5] (Escherichia coli, 0111, sc, read-out: ED50), 67.2 mg/kg; in [17] it was 50.8 mg/kg. Further, the LD50 was 2000 to 4000 mg/kg in [19] (route Oral) and about 500 mg/kg in series [19] (sc, route Subcutaneous).
